Measured values taken from BigSolDB 2.1.

O=[N+]([O-])c1ccc(Cl)c(Cl)c1
solubility (mole fraction)
Settings	in cyclohexane	in ethyl acetate	in isopropanol	in n-butanol	in n-heptane	in n-hexane	in n-propanol	in tetrachloromethane
278.15 K	0.0568	0.249	0.0157	0.0389	0.0296	0.0293	0.0506	0.129
280.65 K	0.0632	0.332	0.0199	0.0443	0.0326	0.0363	0.0519	0.182
283.15 K	0.0703	0.405	0.0221	0.0486	0.0424	0.0425	0.0537	0.244
285.65 K	0.0774	0.463	0.0272	0.0542	0.0451	0.0476	0.0582	0.302
288.15 K	0.0865	0.541	0.0318	0.0593	0.0505	0.0518	0.0634	0.362
290.65 K	0.111	0.602	0.036	0.0665	0.0564	0.0572	0.0724	0.435
293.15 K	0.154	0.668	0.0439	0.0735	0.063	0.0634	0.0819	0.511
295.65 K	0.25	0.719	0.0615	0.0819	0.0662	0.0699	0.0935	0.572
298.15 K	0.343	0.778	0.0783	0.0999	0.0729	0.0824	0.115	0.644
300.65 K	0.511	0.822	0.0981	0.118	0.0908	0.115	0.139	0.722
303.15 K	0.751	0.866	0.124	0.136	0.132	0.173	0.173	0.792

O=[N+]([O-])c1cccc(Cl)c1Cl
solubility (mole fraction)
Settings	in cyclohexane	in ethyl acetate	in isopropanol	in n-butanol	in n-heptane	in n-hexane	in n-propanol	in tetrachloromethane
278.15 K	0.0137	0.212	0.00992	0.0254	0.00633	0.00535	0.0222	0.0619
280.65 K	0.0156	0.269	0.0116	0.0331	0.00962	0.00888	0.0247	0.0811
283.15 K	0.0184	0.331	0.0148	0.0401	0.0128	0.0112	0.0275	0.097
285.65 K	0.0199	0.388	0.0169	0.0453	0.0146	0.0134	0.0295	0.11
288.15 K	0.0212	0.435	0.0199	0.0501	0.017	0.015	0.0318	0.12
290.65 K	0.0266	0.486	0.0243	0.0527	0.0212	0.0172	0.035	0.13
293.15 K	0.0317	0.521	0.0286	0.0563	0.0251	0.0214	0.0387	0.15
295.65 K	0.0377	0.569	0.0336	0.0589	0.0276	0.0231	0.0421	0.194
298.15 K	0.0421	0.592	0.0394	0.0614	0.0322	0.0245	0.0456	0.241
300.65 K	0.0474	0.645	0.0452	0.0645	0.0345	0.0277	0.0511	0.312
303.15 K	0.0549	0.682	0.05	0.0679	0.038	0.031	0.0575	0.38
